Columns and labels:
IL-1 induction of PGE-2 = assay: IL-1 induced PGE-2 in human skin fibroblasts (ELISA); assay type: cell-based; conditions: for inhibition at 100 µM: Example 3 (FIG. 4A); for inhibition at 50 µM: Example 3 (FIG. 4A/4B); for IL-1 induction of PGE-2 blocked: Example 2 dose-response (FIG. 3)
Description: (§1) For this experiment, human skin fibroblasts were seeded into 12 well culture dishes, at a density of 80,000 cells/well in tissue culture medium and left overnight to attach to the dish. The next day, medium was removed and replaced with fresh medium containing either 1% ethanol as a diluent control, IL-1 at a concentration of 500 picograms/ml, or IL-1 plus 4-EB at either 250 μM or 500 μM. Cells were incubated for an additional 24 hours and at this time, the medium was removed and assayed by ELISA for the presence of PGE-2 the culture medium.
Subsequent studies were carried out to determine the dose-response of human skin fibroblasts to 4-EB. […] The results of the study are provided graphically in FIG. 3.
as §1, with “culture dishes” for “culture dishes,”, “plus one of the compounds under investigation” for “plus 4-EB”, “at a concentration of 1, 10, 50” for “at either 250 μM”, “or 100” for “or 500”, “PGE-2 in” for “PGE-2”

[1] = test system: TPA-induced PGE2 expression in keratinocytes; assay: TPA induced PGE-2 in human skin keratinocytes (ELISA); assay type: cell-based; conditions: Keratinocyte, Example 4 (FIG. 5), TPA 32 nM, read-out: percent inhibition of TPA induced PGE-2
Description: as §1, with “culture dishes” for “culture dishes,”, “plus one of the compounds under investigation” for “plus 4-EB”, “at a concentration of 1, 10, 50” for “at either 250 μM”, “or 100” for “or 500”, “PGE-2 in” for “PGE-2”
Similar in vitro studies as those described in Example 3 were run using human skin keratinocytes. The experimental set up was the same as described for Example 3 but replacing IL-1 with tetradecanoyl phorbol acetate (TPA) at a concentration of 32 nM as the agonist. The compounds tested were 2-ethoxybenzaldehyde (2-EB) and 3-ethoxybenzaldehyde (3-EB) and 4-ethoxybenzaldehyde (4-EB) in concentrations of either 10, 50, or 100 μM.

[2] = Franz cell percutaneous absorption analysis; assay type: in vitro ADME, human; conditions: from 1.0% 4-EB lotion; 24 hour period
Description: This lotion was then tested by Franz cell percutaneous absorption analysis to determine how much 4-EB could penetrate human skin over a 24 hour period. The lotion formulation above provided a flux rate of 4-EB through human skin of 30-50 micrograms/hour.

[3] = Homo sapiens, Skin fibroblast, 100 μM, IL-1 500 picograms/ml, 24 hours, read-out: Percent inhibition of IL-1 induced PGE-2
[4] = Homo sapiens, Skin fibroblast, 50 μM, IL-1 500 picograms/ml, 24 hours, read-out: Percent inhibition of IL-1 induced PGE-2

Q: With `CCOc1cccc(C=O)c1` [3-EB, 3-ethoxybenzaldehyde] as the compound, how does the inhibition at 100 µM (IL-1 induction of PGE-2; [3]) read?
A: 41.2%

Q: And the inhibition at 50 µM (IL-1 induction of PGE-2; [4])?
A: 42.6%

Q: And the inhibition at 50 µM [1]?
A: 57.7%

Q: What about the inhibition at 100 µM [1] of the same compound?
A: 76.7%

Q: For `CCOc1ccc(C=O)cc1` [4-EB, 4-ethoxybenzaldehyde], which “inhibition of the IL-1 induction of PGE-2” value (IL-1 induction of PGE-2; Example 1, 250 μM or 500 μM, IL-1 500 picograms/ml, 24 hours) is on record?
A: complete inhibition

Q: And the “IL-1 induction of PGE-2 blocked” value (IL-1 induction of PGE-2; 10 μM)?
A: 35%

Q: What about the “IL-1 induction of PGE-2 blocked” value (IL-1 induction of PGE-2; 50 μM) of the same compound?
A: 82%

Q: What about the “IL-1 induction of PGE-2 blocked” value (IL-1 induction of PGE-2; 100 μM) of the same compound?
A: completely blocked

Q: And the inhibition at 100 µM (IL-1 induction of PGE-2; [3])?
A: 81.5%

Q: And the inhibition at 50 µM [1]?
A: 79.9%

Q: And the inhibition at 100 µM [1]?
A: 94.9%

Q: What about the “flux rate of 4-EB through human skin” value [2] of the same compound?
A: 30-50 micrograms/hour

Q: Which “inhibition of the IL-1 induced production of PGE-2 (in words)” value (IL-1 induction of PGE-2; Example 3, 10 or 50 μM) does the source give for `COc1ccc(C=O)cc1` [4-MB, 4-methoxybenzaldehyde] here?
A: did not appear to inhibit

Q: And the inhibition at 50 µM (IL-1 induction of PGE-2; [4])?
A: 13.6%

Q: And the inhibition at 10 µM (IL-1 induction of PGE-2; Homo sapiens, Skin fibroblast, Example 3 (FIG. 4B), 10 μM, IL-1 500 picograms/ml, 24 hours, read-out: Percent inhibition of IL-1 induced PGE-2)?
A: 16.2%

Q: For `CCOc1ccccc1C=O` [2-EB, 2-ethoxybenzaldehyde], which inhibition at 100 µM (IL-1 induction of PGE-2; [3]) is on record?
A: 82.9%

Q: What about the inhibition at 50 µM (IL-1 induction of PGE-2; [4]) of the same compound?
A: 58.9%

Q: And the inhibition at 10 µM ([1]; 10 μM)?
A: 55.2%

Q: And the inhibition at 50 µM [1]?
A: 76.6%

Q: What about the inhibition at 100 µM [1] of the same compound?
A: 83%
